According to US11617748B2, “Meclozine derivatives and diclazuril derivatives for use in the prevention and/or the treatment of disorders associated to the inflammation induced by P. acnes” (priority 2016, dated 2023):

Assays:
Type in all cases: cell-based, human
[1] = tested on: PI3K; assay: Western blot of p-PI3K/PI3K in P. acnes-stimulated HaCaT cells; settings: 25 μM, 24 h pre-treatment
Protocol: (§1) Western Blot analysis. Whole cell protein extracts (25 μg) were separated by electrophoresis (LDS-PAGE) under denaturing conditions with NuPAGE Novex 4-12% Bis-Tris gel (1 mm, 12 wells, Invitrogen, UK) and proteins were transferred onto nitrocellulose membranes and saturated in 20 ml of saturation buffer consisting of TBS 1× (Tris Buffered Saline) containing 200 mM Tris, 1.4 M NaCl (pH 7.6), 5% no fat milk, 0.1% Tween 20 for 1 h. […] After washing to remove unbound antibodies, bound primary antibodies were detected by incubation for 1 h using secondary antibody against rabbit- and mouse IgG (Santa Cruz Biotechnology, SC-2357, 1:5000 and SC-2005, 1:5000, respectively). Unbound material was removed by washing and peroxidase activity was detected in a chemiluminescence assay (WesternBright ECL, Advansta, Menlo Park, USA). […]

[2] = tested on: IL-8 production; assay: IL-8 production by M5-stimulated NHDK, in vitro psoriasis-like model (ELISA); settings: NHDK + M5, 48 h
Protocol: Cell culture, pretreatment and stimulation.
(§2) ELISA. Human IL-1β, IL-8, hBD-2 and TNF-α protein concentration were measured in the supernatants of stimulated cells using various ELISA Sets (all from Ready-Set-Go from eBioscience, except hBD-2 measurements: Human DEFB4A/BD-2 ELISA Kit from LSBio) according to the manufacturer's instructions. We used serial dilutions of recombinant human IL-1β, IL-8, hBD-2 and TNF-α for standard curve. The optical density was determined at 450 nm at a wavelength correction of 540 nm.

[3] = tested on: PPARγ; assay: Western blot of PPARγ expression in P. acnes-stimulated HaCaT cells; settings: 25 μM, 24 h pre-treatment
Protocol: as §1

[4] = tested on: PPARα; assay: Western blot of PPARα expression in P. acnes-stimulated HaCaT cells; settings: 25 μM, 24 h pre-treatment
Protocol: as §1

[5] = tested on: Cox-2; assay: Western blot of Cox-2 expression in P. acnes-stimulated HaCaT cells; settings: 25 μM, 24 h pre-treatment
Protocol: as §1

[6] = tested on: IL-8 production; assay: PGN-induced IL-8 production in HaCaT keratinocytes (ELISA); settings: 6.25 μM, 24 h pre-treatment, PGN 5, 10, 20 μg/ml for 18 h
Protocol: as §2
Previously it has been shown that diclazuril and meclozine were able to inhibit IL-8 and IL-1β productions at the transcriptional and […] levels in pretreated cells stimulated with P. acnes. Here, it is investigated if the nature of the cell stimuli would have an impact on the diclazuril and meclozine effects on the IL-8 and IL-1β productions. Both, HaCaT and ThP-1 cell lines were pretreated with several concentrations of diclazuril and meclozine ranging from 0.39 to 25 μM for 24 h, and then stimulated with 3 different concentrations of peptidoglycanne (PGN) and lipoteicoic acid (LTA) at 5, 10 and 20 μg/ml for 18 h at 37° C. […] Pretreatment of keratinocytes with diclazuril decreased the production of IL-8 by an average of 65% at 6.25 μM regardless of the initial PGN dose used (FIG. 5A). Same results were obtained with meclozine and at 6.25 μM the IL-8 production was reduced by 60% (FIG. 5B).

[7] = tested on: ERK; assay: Western blot of p-ERK/ERK in P. acnes-stimulated HaCaT cells; settings: 24 h pre-treatment; for phosphorylation of ERKs induced by P. acnes: 10 μM; for phosphorylation of ERK induced by P. acnes: 25 μM
Protocol: Western Blot analysis. Whole cell protein extracts (25 μg) were separated by electrophoresis (LDS-PAGE) under denaturing conditions with NuPAGE Novex 4-12% Bis-Tris gel (1 mm, 12 wells, Invitrogen, UK) and proteins were transferred onto nitrocellulose membranes and saturated in 20 ml of saturation buffer consisting of TBS 1× (Tris Buffered Saline) containing 200 mM Tris, 1.4 M NaCl (pH 7.6), 5% no fat milk, 0.1% Tween 20 for 1 h. After washing three times for 15 min with 15 ml of TBS/T buffer [1×TBS, 0.1% Tween-20], membranes were incubated overnight with gentle mixing at 4° C. with 10 ml of rabbit polyclonal primary antibodies against human ICAM-1 (SC-7891, 1:500), PPARα (SC-398394, 1:250), PPARβ (SC-74517, 1:200), PPARγ (SC-7196, 1:500), IκB (SC-371, 1:500), p-IκB (SC-7977, 1:500), Cox-2 (SC-7951, 1:250), p-mTOR (CS, Ref 2974, 1:1000), mTOR (CS, Ref 2972, 1:1000), p-p38 (SC-17852, 1:500), p38 (SC-535, 1:250), ERK (SC-94, 1:500), JNK (SC-571, 1:500), and mouse monoclonal primary antibodies against human p-PI3 kinase (CS, Ref 4228, 1:250), PI3 kinase (CS, Ref 4257, 1:250), p-Akt1/2/3 (SC-81433, 1:500), p-ERK (SC-7383, 1:500), p-JNK (SC-6254, 1:500), -actin used to control loading, (SC-47778, 1:1000) diluted in TBS/T supplemented with 5% BSA (antibodies were purchased from Santa Cruz Biotechnology, Inc., Santa Cruz, Calif., USA abbreviated SC; and from Cell Signaling Technology, Inc. Leiden, The Netherlands abbreviated CS above). After washing to remove unbound antibodies, bound primary antibodies were detected by incubation for 1 h using secondary antibody against rabbit- and mouse IgG (Santa Cruz Biotechnology, SC-2357, 1:5000 and SC-2005, 1:5000, respectively). Unbound material was removed by washing and peroxidase activity was detected in a chemiluminescence assay (WesternBright ECL, Advansta, Menlo Park, USA).
The molecular basis for the inhibition of IL-8 production by diclazuril and meclozine has been investigated, in particular it has been evaluated if they interfered with signaling pathways known to be activated when keratinocytes are stimulated with P. acnes. It has first been confirmed the activation of IL-8 production when cells were stimulated by P. acnes while pre-treatment with both, diclazuril and meclozine, inhibit such production (FIG. 4A).
We also shown that the activation of HaCaT keratinocytes by P. acnes led to the activation of p-ERK, p-p38, p-JNK, p-PKC, p-Akt, p-mTOR (FIG. 15, panel P. acnes alone) and p-PI3K (FIG. 16, panel P. acnes alone).

SMILES	phosphorylation of PI3K induced by P. acnes [1]	IC50 ([2]; Homo sapiens, read-out: IC50 of decrease of IL-8 production)	decrease of IL-8 production ([2]; at 3,125 μM)	expression of PPARγ [3]	expression of PPARα [4]	expression of Cox-2 [5]	decrease of PGN-induced IL-8 production [6]	phosphorylation of ERKs induced by P. acnes [7]	phosphorylation of ERK induced by P. acnes [7]	effect on IL-8 production, in words ([2]; 0.39 to 12.5 μM)
N#CC(c1ccc(Cl)cc1)c1c(Cl)cc(-n2ncc(=O)[nH]c2=O)cc1Cl (stereo not shown) [diclazuril, Diclazuril]	prevented the phosphorylation	2000 to 3000 nM	66%	no change	no change	decrease	65%	prevented the phosphorylation of ERKs	prevented the phosphorylation	–
Cc1cccc(CN2CCN(C(c3ccccc3)c3ccc(Cl)cc3)CC2)c1 (stereo not shown) [meclozine, Meclozine]	prevented the phosphorylation	–	–	–	strongly decrease	strongly decrease	60%	prevented the phosphorylation of ERKs	prevented the phosphorylation	no effect
